{"source": "patent US20170327598A1", "about": "“SINGLE DOMAIN ANTIBODIES DIRECTED AGAINST INTRACELLULAR ANTIGENS” (SINGH MOLECULAR MEDICINE, LLC, priority 2014, published 2017)", "key": {"[1]": {"system": "MCF-7 human breast tumor xenograft", "conditions": "1 mg/kg ip tid × 14"}, "U87 mg cells": {"system": "U87 mg cells", "assay": "Anti-proliferative effect, U87 mg cells", "assay_type": "cell-based", "conditions": "for Absorbance ± S.E. / % Inhibition: 72 hr"}, "STAT5": {"system": "STAT5", "assay": "Biacore 3000, sdAb immobilized, STAT5 analyte (Example 23)", "assay_type": "binding"}, "DU145 tumor xenograft": {"system": "DU145 tumor xenograft", "assay": "DU145 xenograft study, Example 11"}}, "note": "Several values for one entry are separate records, joined by “and”; a condition that tells them apart may be missing. Identical values can stand only once. Like-named read-outs stand apart in the source and are kept apart here."}
{"substance": "Anti-STAT3 VHH13: anti-STAT3 single domain antibody, SEQ ID NO:3; bacterially produced form referred to as SBT-100", "values": [{"measurement": "Tumor caliper measurement W (mm), individual animal", "setting": "[1]; Day 4, 1 mg/kg", "value": "7 mm and 6 mm (2×)"}, {"measurement": "Tumor Volume TV (mm^3), group Mean", "setting": "[1]; Day 8", "value": 253.7, "unit": "mm^3"}, {"measurement": "Tumor Volume TV (mm^3), individual animal", "setting": "[1]; Day 8, 1 mg/kg", "value": "320 mm^3 and 196 mm^3 and 245 mm^3"}, {"measurement": "Tumor caliper measurement L (mm), individual animal", "setting": "[1]; Day 8, 1 mg/kg", "value": 8, "unit": "mm"}, {"measurement": "Tumor caliper measurement W (mm), individual animal", "setting": "[1]; Day 8, 1 mg/kg", "value": 7, "unit": "mm"}, {"measurement": "Tumor Volume TV (mm^3), group Mean", "setting": "[1]; Day 11", "value": 307, "unit": "mm^3"}, {"measurement": "Tumor Volume TV (mm^3), individual animal", "setting": "[1]; Day 11, 1 mg/kg", "value": "405 mm^3 and 196 mm^3 and 320 mm^3"}, {"measurement": "Tumor caliper measurement L (mm), individual animal", "setting": "[1]; Day 11, 1 mg/kg", "value": 8, "unit": "mm"}, {"measurement": "Tumor caliper measurement W (mm), individual animal", "setting": "[1]; Day 11, 1 mg/kg", "value": "9 mm and 7 mm"}, {"measurement": "Tumor Volume TV (mm^3), group Mean", "setting": "[1]; Day 15", "value": 346.5, "unit": "mm^3"}, {"measurement": "Tumor Volume TV (mm^3), individual animal", "setting": "[1]; Day 15, 1 mg/kg", "value": "405 mm^3 and 288 mm^3"}, {"measurement": "Tumor caliper measurement L (mm), individual animal", "setting": "[1]; Day 15, 1 mg/kg", "value": 9, "unit": "mm"}, {"measurement": "Tumor caliper measurement W (mm), individual animal", "setting": "[1]; Day 15, 1 mg/kg", "value": 9, "unit": "mm"}, {"measurement": "Tumor Volume TV (mm^3), group Mean", "setting": "[1]; Day 18", "value": 346.5, "unit": "mm^3"}, {"measurement": "Tumor Volume TV (mm^3), individual animal", "setting": "[1]; Day 18, 1 mg/kg", "value": "405 mm^3 and 288 mm^3"}, {"measurement": "Tumor caliper measurement L (mm), individual animal", "setting": "[1]; Day 18, 1 mg/kg", "value": 9, "unit": "mm"}, {"measurement": "Tumor caliper measurement W (mm), individual animal", "setting": "[1]; Day 18, 1 mg/kg", "value": 9, "unit": "mm"}, {"measurement": "Tumor Volume TV (mm^3), group Mean", "setting": "[1]; Day 22", "value": 477.5, "unit": "mm^3"}, {"measurement": "Tumor Volume TV (mm^3), individual animal", "setting": "[1]; Day 22, 1 mg/kg", "value": "550 mm^3 and 405 mm^3"}, {"measurement": "Tumor caliper measurement L (mm), individual animal", "setting": "[1]; Day 22, 1 mg/kg", "value": 11, "unit": "mm"}, {"measurement": "Tumor caliper measurement W (mm), individual animal", "setting": "[1]; Day 22, 1 mg/kg", "value": 9, "unit": "mm"}, {"measurement": "Tumor Volume TV (mm^3), group Mean", "setting": "[1]; Day 25", "value": 634.5, "unit": "mm^3"}, {"measurement": "Tumor Volume TV (mm^3), individual animal", "setting": "[1]; Day 25, 1 mg/kg", "value": "864 mm^3 and 405 mm^3"}, {"measurement": "Tumor caliper measurement L (mm), individual animal", "setting": "[1]; Day 25, 1 mg/kg", "value": 12, "unit": "mm"}, {"measurement": "Tumor caliper measurement W (mm), individual animal", "setting": "[1]; Day 25, 1 mg/kg", "value": "12 mm and 9 mm"}, {"measurement": "Tumor Volume TV (mm^3), group Mean", "setting": "[1]; Day 29", "value": 799.3, "unit": "mm^3"}, {"measurement": "Tumor Volume TV (mm^3), individual animal", "setting": "[1]; Day 29, 1 mg/kg", "value": "1099 mm^3 and 500 mm^3"}, {"measurement": "Tumor caliper measurement L (mm), individual animal", "setting": "[1]; Day 29, 1 mg/kg", "value": 13, "unit": "mm"}, {"measurement": "Tumor caliper measurement W (mm), individual animal", "setting": "[1]; Day 29, 1 mg/kg", "value": 13, "unit": "mm"}, {"measurement": "Tumor Volume TV (mm^3), group Mean", "setting": "[1]; Day 32", "value": 500, "unit": "mm^3"}, {"measurement": "Tumor Volume TV (mm^3), individual animal", "setting": "[1]; Day 32", "value": 500, "unit": "mm^3"}, {"measurement": "Tumor Volume TV (mm^3), group Mean", "setting": "[1]; Day 36", "value": 864, "unit": "mm^3"}, {"measurement": "Tumor Volume TV (mm^3), individual animal", "setting": "[1]; Day 36", "value": 864, "unit": "mm^3"}, {"measurement": "Tumor caliper measurement L (mm), individual animal", "setting": "[1]; Day 36", "value": 12, "unit": "mm"}, {"measurement": "Tumor caliper measurement W (mm), individual animal", "setting": "[1]; Day 36", "value": 12, "unit": "mm"}, {"measurement": "Tumor Volume TV (mm^3), group Mean", "setting": "[1]; Day 39", "value": 1098.5, "unit": "mm^3"}, {"measurement": "Tumor Volume TV (mm^3), individual animal", "setting": "[1]; Day 39", "value": 1099, "unit": "mm^3"}, {"measurement": "Tumor caliper measurement L (mm), individual animal", "setting": "[1]; Day 39", "value": 13, "unit": "mm"}, {"measurement": "Tumor caliper measurement W (mm), individual animal", "setting": "[1]; Day 39", "value": 13, "unit": "mm"}, {"measurement": "Absorbance ± S.E.", "setting": "U87 mg cells; 25 μg/ml", "value": "0.687 ± 0.03"}, {"measurement": "% Inhibition", "setting": "U87 mg cells; 50 μg/ml", "value": 18, "unit": "%"}, {"measurement": "Absorbance ± S.E.", "setting": "U87 mg cells; 50 μg/ml", "value": "0.456 ± 0.01"}, {"measurement": "% Inhibition", "setting": "U87 mg cells; 100 μg/ml", "value": 51, "unit": "%"}, {"measurement": "Absorbance ± S.E.", "setting": "U87 mg cells; 100 μg/ml", "value": "0.271 ± 0.02"}, {"measurement": "% Inhibition", "setting": "U87 mg cells; 200 μg/ml", "value": 62, "unit": "%"}, {"measurement": "Absorbance ± S.E.", "setting": "U87 mg cells; 200 μg/ml", "value": "0.211 ± 0.03"}, {"measurement": "IC50", "setting": "U87 mg cells; U87 mg cells", "value": 65, "unit": "µg/mL"}, {"measurement": "Absorbance ± S.E.", "setting": "U87 mg cells; […]", "value": "0.702 ± 0.04"}, {"measurement": "binding of STAT5", "setting": "STAT5; Biacore, sdAb immobilized", "value": "bound"}, {"measurement": "Result", "setting": "STAT5; sdAb immobilized (STAT5-31 440 RU, anti-KRAS 140 RU, VHH13 1000 RU), STAT5 protein analyte 500 nM", "value": "Binding"}, {"measurement": "% treatment/control", "setting": "DU145 tumor xenograft; 5 mg/kg bw IP BIDx14", "value": 74.8, "unit": "%"}, {"measurement": "tumor doubling time", "setting": "DU145 tumor xenograft; 5 mg/kg bw IP BIDx14", "value": 18.19, "unit": "days"}, {"measurement": "mean tumor growth inhibition", "setting": "DU145 tumor xenograft; 5 mg/kg bw IP BIDx14, end of the study", "value": 26.6, "unit": "%"}, {"measurement": "mean tumor size (±SE)", "setting": "DU145 tumor xenograft; 5 mg/kg bw IP BIDx14, last day of dosing (Day 14)", "value": "364.14±51.64"}, {"measurement": "mean tumor size (±S.E.)", "setting": "DU145 tumor xenograft; 5 mg/kg bw IP BIDx14, termination (day 28)", "value": "601.83±131.51"}]}
